Results from patent publication US20030181334A1, “Herbicidal method” (priority 2001, published 2003).

System: Amaranthus retroflexus, Abutilon theophrasti, Alopecurus myosuroides, Avena fatua, Brassica rapa and Echinochloa crus-galli
Test: Pre-emergence and post-emergence effect on weeds
Format: in vivo
Conditions: 500 g/ha or less; pre- or post-emergence application; one or more of the weed species; two weeks after treatment
Text: Pre-Emergence Effect on Weeds Seed of various broad-leaf and grass weed species were sown and compound of formula (I), dissolved in a mixture of acetone and water, was applied at a rate of 500 g/ha or less to the soil surface. The weed species used were Amaranthus retroflexus, Abutilon theophrasti, Alopecurus myosuroides, Avena fatua, Brassica rapa and Echinochloa crus-galli. Post-Emergence Effect on Weeds Seed of the weed species Amaranthus retroflexus, Abutilon theophrasti, Alopecurus myosuroides, Avena fatua, Brassica rapa and Echinochloa crus-galli were sown in soil and grown up to a 1-3 leaves stage. A post-emergence application of compound of formula (I), dissolved in a mixture of acetone and water, was applied at a rate of 500 g/ha or less. Two weeks after treatment in the above test methods, weed control was assessed as a percentage reduction in plant growth, in comparison with untreated control.

Compound | herbicidal activity (weed control assessed as percentage reduction in plant growth in comparison with untreated control)
N#Cc1cc(C#N)cc(Oc2cccc(Oc3ccnc(Cl)n3)c2)c1 [Compound 1, 5-[3-(2-chloropyrimidin-4-yloxy)phenoxy]isophthalonitrile] | very good herbicidal activity
N#Cc1cccc(Oc2cc(C#N)cc(C#N)c2)c1 [Compound 42, 5-(3-cyanophenoxy)isophthalonitrile] | very good herbicidal activity
N#Cc1cc(C#N)cc(Oc2cccc(OC(F)(F)C(F)F)c2)c1 [Compound 44, 5-(3-[1,1,2,2-tetrafluoroethoxy]phenoxy)isophthalonitrile] | very good herbicidal activity

System: not given
Test: not given
Conditions: not given

melting point [°C] | Compound
143 | N#Cc1cc(C#N)cc(Oc2cccc(O)c2)c1 [Compound 49, 5-(3-hydroxyphenoxy)isophthalonitrile]
156 | N#Cc1cc(C#N)cc(Oc2nccc(Oc3cc(Cl)cc(Cl)c3)n2)c1 [Compound 83, 5-[4-(3,5-dichlorophenoxy)pyrimidin-2-yloxy] isophthalonitrile]
196 | N#Cc1cc(C#N)cc(Oc2ccnc(Oc3cc(Cl)cc(Cl)c3)n2)c1 [Compound 84, 5-[2-(3,5-dichlorophenoxy)pyrimidin-4-yloxy]isophthalonitrile]
212 to 213 | N#Cc1cc(C#N)cc(Oc2cccc(Oc3cc(C#N)cc(C#N)c3)c2)c1 [Compound 90, 5-[3-(3,5-dicyanophenoxy)phenoxy]isophthalonitrile]
